In brackets after ≈: the same amount, converted by molar mass.
Tests used:
Type in all cases: cell-based
[1] = system: Escherichia coli K12 OUT 8401; assay: Bactericidal activity MBC, dilution method; conditions: 30° C., 30 min
Procedure: (§1) Each minimum inhibitory concentration (MIC) was determined as will be described hereinafter. Aliquots of a suspension of stationary-phase cells, the cell concentration of which had been adjusted to 10^6 cells/mL with nutrient broth in accordance with the general broth dilution method, were mixed with serially-diluted solutions of a compound, respectively. Subsequent to stationary culture at 37° C. for 24 hours, the MIC value was determined depending upon whether or not any growth had taken place.
(§2) As a control compound, benzalkonium bromide was used. Using five (5) Gram-negative bacteria and four (4) Gram-positive bacteria as test microorganisms, minimum bactericidal concentrations (MBCs) were determined in a similar manner as described above.

Bacillus cereus IFO 3001 [2] = assay: Bactericidal activity MBC, dilution method; conditions: 30° C., 30 min
Procedure: as §1, with “Subsequent to stationary culture at 37° C. for 24 hours, the MIC value was determined depending upon whether or not any growth had taken place.” left out
as §2

[3] = system: Staphylococcus aureus IFO 12732; assay: Bactericidal activity MBC, dilution method; conditions: 30° C., 30 min
Procedure: as §1, with “Subsequent to stationary culture at 37° C. for 24 hours, the MIC value was determined depending upon whether or not any growth had taken place.” left out
as §2

[4] = system: Klebsiella pneumoniae ATCC 13883; assay: Bactericidal activity MBC, dilution method; conditions: 30° C., 30 min
Procedure: as §1, with “Subsequent to stationary culture at 37° C. for 24 hours, the MIC value was determined depending upon whether or not any growth had taken place.” left out
as §2

[5] = system: Bacillus subtilis ATCC 6633; assay: Bactericidal activity MBC, dilution method; conditions: 30° C., 30 min
Procedure: as §1, with “Subsequent to stationary culture at 37° C. for 24 hours, the MIC value was determined depending upon whether or not any growth had taken place.” left out
as §2

[6] = system: Escherichia coli K12 W3110; assay: Bactericidal activity MBC, dilution method; conditions: 30° C., 30 min
Procedure: as §1, with “Subsequent to stationary culture at 37° C. for 24 hours, the MIC value was determined depending upon whether or not any growth had taken place.” left out
as §2

[7] = system: Pseudomonas aeruginosa ATCC 27583; assay: Bactericidal activity MBC, dilution method; conditions: 30° C., 30 min
Procedure: as §1, with “Subsequent to stationary culture at 37° C. for 24 hours, the MIC value was determined depending upon whether or not any growth had taken place.” left out
as §2

[8] = system: Bacillus subtilis IFO 3134; assay: Bactericidal activity MBC, dilution method; conditions: 30° C., 30 min
Procedure: as §1, with “Subsequent to stationary culture at 37° C. for 24 hours, the MIC value was determined depending upon whether or not any growth had taken place.” left out
as §2

Proteus rettgeri NIH 96 [9] = assay: Bactericidal activity MBC, dilution method; conditions: 30° C., 30 min
Procedure: as §1, with “Subsequent to stationary culture at 37° C. for 24 hours, the MIC value was determined depending upon whether or not any growth had taken place.” left out
as §2

[10] = system: Aspergillus niger TSY 0013; assay: Antimold MIC against eumycetes, broth dilution; conditions: Sabouraud medium, 30° C., 7 days
Procedure: (§3) As a control compound, TBZ (2-(4′-thiozolyl)benzimidazole) was used. Each minimum inhibitory concentration (MIC) was determined as will be described hereinafter. Following the general broth dilution method, each test microorganisms which had been precultured with Sabouraud medium was diluted with humectant-added, sterilized water to prepare a spore suspension. Aliquots (1 mL) of diluted solutions of a compound were mixed with 1-mL aliquots of the spore suspension, respectively. After incubating the mixtures at 30° C. for 1 week in an incubator, turbidity was relied upon to determine whether or not any growth had taken place. The turbidity-free lowest concentration was recorded as MIC.

[11] = system: Cladosporium cladosporioides IFO 6348; assay: Antimold MIC against eumycetes, broth dilution; conditions: Sabouraud medium, 30° C., 7 days
Procedure: as §3

[12] = system: Chaetomium globosum IFO 6347; assay: Antimold MIC against eumycetes, broth dilution; conditions: Sabouraud medium, 30° C., 7 days
Procedure: as §3

[13] = system: Aspergillus terreus IFO 6346; assay: Antimold MIC against eumycetes, broth dilution; conditions: Sabouraud medium, 30° C., 7 days
Procedure: as §3

[14] = system: Aspergillus niger IFO 6341; assay: Antimold MIC against eumycetes, broth dilution; conditions: Sabouraud medium, 30° C., 7 days
Procedure: as §3

[15] = system: Trichoderma virides IFO 30498; assay: Antimold MIC against eumycetes, broth dilution; conditions: Sabouraud medium, 30° C., 7 days
Procedure: as §3

[16] = system: Penicillium funiculosum IFO 6345; assay: Antimold MIC against eumycetes, broth dilution; conditions: Sabouraud medium, 30° C., 7 days
Procedure: as §3

[17] = system: Aureobasidium pullulans IFO 6353; assay: Antimold MIC against eumycetes, broth dilution; conditions: Sabouraud medium, 30° C., 7 days
Procedure: as §3

[18] = system: Gliocladium virides IFO 6355; assay: Antimold MIC against eumycetes, broth dilution; conditions: Sabouraud medium, 30° C., 7 days
Procedure: as §3

Rhizopus nigricans SN 32 = assay: Antimold MIC against eumycetes, broth dilution; conditions: Sabouraud medium, 30° C., 7 days
Procedure: as §3

[19] = system: Pseudomonas aeruginosa ATCC 3080; assay: Bacteriostatic activity MIC, broth dilution; conditions: nutrient broth, 37° C., 24 hours
Procedure: (§4) Using benzalkonium chloride as a control compound, minimum inhibitory concentrations (MICs) were determined.
as §1
(§5) As test microorganisms, ten (10) Gram-negative bacteria and six (6) Gram-positive bacteria were used.

Bacillus cereus IFO 3001 [20] = assay: Bacteriostatic activity MIC, broth dilution; conditions: nutrient broth, 37° C., 24 hours
Procedure: as §4, §1, §5

[21] = system: Micrococcus luteus IFO 12708; assay: Bacteriostatic activity MIC, broth dilution; conditions: nutrient broth, 37° C., 24 hours
Procedure: as §4, §1, §5

[22] = system: Pseudomonas aeruginosa ATCC 10145; assay: Bacteriostatic activity MIC, broth dilution; conditions: nutrient broth, 37° C., 24 hours
Procedure: as §4, §1, §5

[23] = system: Staphylococcus aureus IFO 12732; assay: Bacteriostatic activity MIC, broth dilution; conditions: nutrient broth, 37° C., 24 hours
Procedure: as §4, §1, §5

[24] = system: Escherichia coli K12 OUT 8401; assay: Bacteriostatic activity MIC, broth dilution; conditions: nutrient broth, 37° C., 24 hours
Procedure: as §4, §1, §5

[25] = system: Klebsiella pneumoniae ATCC 13883; assay: Bacteriostatic activity MIC, broth dilution; conditions: nutrient broth, 37° C., 24 hours
Procedure: as §4, §1, §5

[26] = system: Bacillus subtilis ATCC 6633; assay: Bacteriostatic activity MIC, broth dilution; conditions: nutrient broth, 37° C., 24 hours
Procedure: as §4, §1, §5

[27] = system: Escherichia coli K12 W3110; assay: Bacteriostatic activity MIC, broth dilution; conditions: nutrient broth, 37° C., 24 hours
Procedure: as §4, §1, §5

[28] = system: Klebsiella pneumoniae ATCC 4352; assay: Bacteriostatic activity MIC, broth dilution; conditions: nutrient broth, 37° C., 24 hours
Procedure: as §4, §1, §5

[29] = system: Pseudomonas aeruginosa ATCC 27583; assay: Bacteriostatic activity MIC, broth dilution; conditions: nutrient broth, 37° C., 24 hours
Procedure: as §4, §1, §5

[30] = system: Bacillus subtilis IFO 3134; assay: Bacteriostatic activity MIC, broth dilution; conditions: nutrient broth, 37° C., 24 hours
Procedure: as §4, §1, §5

[31] = system: Proteus vulgaris ATCC 13315; assay: Bacteriostatic activity MIC, broth dilution; conditions: nutrient broth, 37° C., 24 hours
Procedure: as §4, §1, §5

Proteus rettgeri NIH 96 [32] = assay: Bacteriostatic activity MIC, broth dilution; conditions: nutrient broth, 37° C., 24 hours
Procedure: as §4, §1, §5

[33] = system: Proteus mirabilis IFO 3849; assay: Bacteriostatic activity MIC, broth dilution; conditions: nutrient broth, 37° C., 24 hours
Procedure: as §4, §1, §5

[34] = system: Staphylococcus aureus JCI (MRSA); assay: Bacteriostatic activity MIC, broth dilution; conditions: nutrient broth, 37° C., 24 hours
Procedure: as §4, §1, §5

Compound	MBC [1] [µM]	MBC (Bacillus cereus IFO 3001 [2]) [µM]	MBC [3] [µM]	MBC [4] [µM]	MBC [5] [µM]	MBC [6] [µM]	MBC [7] [µM]	MBC [8] [µM]	MBC (Proteus rettgeri NIH 96 [9]) [µM]	MIC [10] [µM]	MIC [11] [µM]	MIC [12] [µM]	MIC [13] [µM]	MIC [14] [µM]	MIC [15] [µM]	MIC [16] [µM]	MIC [17] [µM]	MIC [18] [µM]	MIC (Rhizopus nigricans SN 32)	MIC [19] [µM]	further results
CCCCCCCC[n+]1cccc(COCCCCOCc2ccc[n+](CCCCCCCC)c2)c1.[Br-].[Br-] [Compound 7-A]	1.8	0.9	0.9	3.6	0.9	1.8	3.6	0.9	3.6	3.6	3.6	3.6	3.6	3.6	6.25	3.6	3.6	3.6	6.25 µM	6.25	MIC (Bacillus cereus IFO 3001 [20]): 0.45 µM; MIC [21]: 0.2 µM; MIC [22]: 6.25 µM; MIC [23]: 0.45 µM; MIC [24]: 0.9 µM; MIC [25]: 1.8 µM; MIC [26]: 0.45 µM; MIC [27]: 0.9 µM; MIC [28]: 1.8 µM; MIC [29]: 6.25 µM; MIC [30]: 0.5 µM; MIC [31]: 3.6 µM; MIC (Proteus rettgeri NIH 96 [32]): 3.6 µM; MIC [33]: 6.25 µM; MIC [34]: 0.4 µM
CCCCCCCC[n+]1ccc(COCCCCOCc2cc[n+](CCCCCCCC)cc2)cc1.[Br-].[Br-] [Compound 7-B]	1.8	0.9	0.9	3.6	0.9	1.8	3.6	0.9	3.6	3.6	3.6	3.6	3.6	3.6	6.25	3.6	3.6	3.6	6.25 µM	6.25	MIC (Bacillus cereus IFO 3001 [20]): 0.45 µM; MIC [21]: 0.2 µM; MIC [22]: 3.6 µM; MIC [23]: 0.45 µM; MIC [24]: 0.9 µM; MIC [25]: 3.6 µM; MIC [26]: 0.45 µM; MIC [27]: 0.9 µM; MIC [28]: 1.8 µM; MIC [29]: 3.6 µM; MIC [30]: 0.45 µM; MIC [31]: 3.6 µM; MIC (Proteus rettgeri NIH 96 [32]): 3.6 µM; MIC [33]: 6.25 µM; MIC [34]: 0.45 µM
CCCCCCCCCC[n+]1cccc(COCCCCOCc2ccc[n+](CCCCCCCCCC)c2)c1.[Br-].[Br-] [Compound 7-C]	0.45	0.2	0.2	0.9	0.2	0.45	0.9	0.45	0.9	1.8	0.9	0.9	0.9	1.8	0.9	1.8	1.8	1.8	1.8 µM	0.9	MIC (Bacillus cereus IFO 3001 [20]): 0.2 µM; MIC [21]: 0.1 µM; MIC [22]: 1.8 µM; MIC [23]: 0.2 µM; MIC [24]: 0.45 µM; MIC [25]: 1.8 µM; MIC [26]: 0.1 µM; MIC [27]: 0.45 µM; MIC [28]: 0.45 µM; MIC [29]: 1.8 µM; MIC [30]: 0.2 µM; MIC [31]: 0.45 µM; MIC (Proteus rettgeri NIH 96 [32]): 0.9 µM; MIC [33]: 1.8 µM; MIC [34]: 0.45 µM
c1ccc2[nH]c(-c3cscn3)nc2c1 [TBZ, 2-(4′-thiozolyl)benzimidazole, reference compound]	–	–	–	–	–	–	–	–	–	102.4 (≈ 20.6 µg/mL)	3.2 (≈ 0.644 µg/mL)	3.2 (≈ 0.644 µg/mL)	25.6 (≈ 5.15 µg/mL)	25.6 (≈ 5.15 µg/mL)	51.2 (≈ 10.3 µg/mL)	1.6 (≈ 0.322 µg/mL)	0.8 (≈ 0.161 µg/mL)	3.2 (≈ 0.644 µg/mL)	102.4< μM	–	–
benzalkonium chloride [reference compound]	–	–	–	–	–	–	–	–	–	–	–	–	–	–	–	–	–	–	–	102.4	MIC (Bacillus cereus IFO 3001 [20]): 6.4 µM; MIC [21]: 6.4 µM; MIC [22]: 51.2 µM; MIC [23]: 6.4 µM; MIC [24]: 12.8 µM; MIC [25]: 102.4 µM; MIC [26]: 6.4 µM; MIC [27]: 25.6 µM; MIC [28]: 12.8 µM; MIC [29]: 51.2 µM; MIC [30]: 6.4 µM; MIC [31]: 16.4 µM; MIC (Proteus rettgeri NIH 96 [32]): 51.2 µM; MIC [33]: 204.8 µM; MIC [34]: 12.8 µM
benzalkonium iodide [reference compound]	51.2	25.6	6.4	102.4	0.8	204.8	204.8	1.6	51.2	–	–	–	–	–	–	–	–	–	–	–	–

Source: patent publication US7612097B2, “Method for producing bactericidal pyridine compound and bactericidal pyridine compound” (Tama Kagaku Kogyo Co., Ltd., priority 2003, dated 2009)
